Measurements: patent US20240115705A1, “Regulation of Butyrophilin subfamily 3 member A1 (BTN3A1, CD277)” (The J. Gladstone Institutes, a testamentary trust …, priority 2021, published 2024)
Where two headings read alike, the source gives them in different places.

System: Daudi-Cas9 cells
Experiment: Cancer-T cell co-culture genome-wide CRISPR knockout screen (Vγ9Vδ2 T cell killing)
Type: cell-based, human
[1] = MAGeCK sgRNA test, co-culture screen
[2] = log-fold change of sgRNA, surviving cells after co-culture vs baseline, MAGeCK
[3] = sgRNA abundance in surviving Daudi-Cas9 KO cells after 24 hours Vγ9Vδ2 T cell co-culture with zoledronate, MAGeCK
[4] = sgRNA enriched (TRUE) or depleted (FALSE) after T cell co-culture

Substance | score [1] | LFC [2] | treat mean [3] | high_in_treatment [4] | LFC | high_in_treatment | score | treat mean
WDR59_TATCCGCACATCGCCGTCA: library sgRNA targeting WDR59 (as printed in the source, key not given here) | 7.8204 | −3.8469 | 327.58 | FALSE |  |  |  | 
RPP25L_TGGCTCTGGGTCGGTTGGA: library sgRNA targeting RPP25L (as printed in the source, key not given here) | 6.0209 | −7.7316 | 9.1906 | FALSE |  |  |  | 
SUGT1_TTTGACTGATGAGTCCACT: library sgRNA targeting SUGT1 (listed as DNA, chemistry not fully specified) | 7.7611 | 1.5136 | 3294.2 | TRUE |  |  |  | 
SPIB_GGGGGGTTCGTAGCAGAGC: library sgRNA targeting SPIB (as printed in the source, key not given here) | 6.2733 | 1.2452 | 3280.6 | TRUE |  |  |  | 
FBXW7_TGAAGTCTCGTTGAAACTG: library sgRNA targeting FBXW7 (as printed in the source, key not given here) | 6.8093 | 1.4811 | 2652.5 | TRUE |  |  |  | 
SPIB_CGGGTCGAAGGCTTCATAG: library sgRNA targeting SPIB (as printed in the source, key not given here) | 6.9394 | 1.7479 | 1900.6 | TRUE |  |  |  | 
LUM_TAGAAAACTCCAAGATAAA: library sgRNA targeting LUM (listed as DNA, chemistry not fully specified) | 8.61 | 4.64 | 171.75 | TRUE |  |  |  | 
PNLIPRP1_GCCCCTGAAAATTCTCCCC: library sgRNA targeting PNLIPRP1 (chemistry not given here) |  |  |  |  | −2.1878 | FALSE | 7.0018 | 1182.9
RFXAP_AGACACTTCGGACCCTCCG: library sgRNA targeting RFXAP (listed as DNA, chemistry not fully specified) | 10.922 | 1.5343 | 6378.3 | TRUE |  |  |  | 
BTN3A1_GTTGATGTGAAGGGTTACA: library sgRNA targeting BTN3A1 (listed as DNA, chemistry not fully specified) | 9.8596 | 1.9969 | 2842.7 | TRUE |  |  |  | 
TRMT61A_CACGTCACCTTGGAGCCGA: library sgRNA targeting TRMT61A (listed as DNA, chemistry not fully specified) | 6.3388 | −3.6911 | 242.28 | FALSE |  |  |  | 
TTC7A_CAGTACGTCATGCTCTCGG: library sgRNA targeting TTC7A (listed as DNA, chemistry not fully specified) | 6.0307 | −5.2629 | 63.697 | FALSE |  |  |  | 
BLQC1S1_ACCAAAGCTTCTGTCAGGC: library sgRNA targeting BLQC-1S1 (listed as DNA, chemistry not fully specified) | 6.0173 | −1.8638 | 1264.6 | FALSE |  |  |  | 
NUDCD3_TCACCACGTGCTTGGGTAC: library sgRNA targeting NUDCD3 (listed as DNA, chemistry not fully specified) | 6.5243 | −3.6651 | 262.75 | FALSE |  |  |  | 
RFXAP_ACGAGGAGACTCACTCGGG: library sgRNA targeting RFXAP (listed as DNA, chemistry not fully specified) | 6.9897 | 2.2103 | 1110.2 | TRUE |  |  |  | 
MRPL55_CGACTCTACCCCGTGCTGC: library sgRNA targeting MRPL55 (as printed in the source, key not given here) | 6.305 | −4.7404 | 104.65 | FALSE |  |  |  | 
SPI1_ATACTCGTGCGTTTGGCGT: library sgRNA targeting SPI1 (as printed in the source, key not given here) | 8.1546 | 1.1261 | 6915.7 | TRUE |  |  |  | 
IRF1_AGCCGAGATGCTAAGAGCA: library sgRNA targeting IRF1 (as printed in the source, key not given here) | 8.1693 | 1.6173 | 3151.9 | TRUE |  |  |  | 

Substance | score [1] | LFC [2] | treat mean [3] | high_in_treatment [4] | LFC | high_in_treatment | score | treat mean
FBXW7_AGGTTTCATACACAGTCCA: library sgRNA targeting FBXW7 (as printed in the source, key not given here) | 7.629 | 1.4859 | 3314.5 | TRUE |  |  |  | 
WDR61_ATTCCATCTATGGCTCCAC: library sgRNA targeting WDR61 (as printed in the source, key not given here) | 6.193 | −9.1046 | 2.9058 | FALSE |  |  |  | 
BTN3A1_GGGAGCCGGTTACTTCCTG: library sgRNA targeting BTN3A1 (listed as DNA, chemistry not fully specified) | 21.24 | 2.5697 | 7249.9 | TRUE |  |  |  | 
ZC3H12A_CCGTGACCTCCAAGGCGAG: library sgRNA targeting ZC3H12A (listed as DNA, chemistry not fully specified) | 6.507 | 1.2168 | 3712.6 | TRUE |  |  |  | 
SLC22A3_GCCTTCCTCTTCGTCGGCG: library sgRNA targeting SLC22A3 (listed as DNA, chemistry not fully specified) | 6.0158 | 1.0179 | 4633 | TRUE |  |  |  | 
SARS2_GCACGGTGCTCACCACGTC: library sgRNA targeting SARS2 (chemistry not given here) |  |  |  |  | −3.8724 | FALSE | 6.2052 | 200.19
GSS_ACCCCAGCTGTGCACCGGT: library sgRNA targeting GSS (listed as DNA, chemistry not fully specified) | 6.1722 | −4.0666 | 169.48 | FALSE |  |  |  | 
BTN2A1_AGCCCCTCATTTCAATGAG: library sgRNA targeting BTN2A1 (listed as DNA, chemistry not fully specified) | 7.0382 | 1.7442 | 1965.3 | TRUE |  |  |  | 
MTG2_ATGAGTACATTGCCGCGCT: library sgRNA targeting MTG2 (listed as DNA, chemistry not fully specified) | 6.5262 | −4.2612 | 163.79 | FALSE |  |  |  | 
SPIB_GAGGTCTCGGACAGCGAGT: library sgRNA targeting SPIB (as printed in the source, key not given here) | 7.1579 | 1.2994 | 3907.1 | TRUE |  |  |  | 
SPIB_GCTAGCGAAGTTCTCCGTG: library sgRNA targeting SPIB (as printed in the source, key not given here) | 8.8597 | 1.4916 | 4447.4 | TRUE |  |  |  | 
BTN3A2_GCGGGATGGCATCACTGCA: library sgRNA targeting BTN3A2 (listed as DNA, chemistry not fully specified) | 15.831 | 2.3489 | 5012.6 | TRUE |  |  |  | 
RFXAP_ACAGGGTTGCATCACTAGC: library sgRNA targeting RFXAP (listed as DNA, chemistry not fully specified) | 10.037 | 1.6018 | 4884.6 | TRUE |  |  |  | 
IRF9_TGTATCAGTTGCTGCCACC: library sgRNA targeting IRF9 (as printed in the source, key not given here) | 7.0068 | 1.2192 | 4293.9 | TRUE |  |  |  | 
BCCIP_AATCTCTTACTGAAGCTGC: library sgRNA targeting BCCIP (listed as DNA, chemistry not fully specified) | 6.3357 | −5.3797 | 64.834 | FALSE |  |  |  | 
SH3GL1_ACTTCTGTCACCGCCTTGC: library sgRNA targeting SH3GL1 (listed as DNA, chemistry not fully specified) | 6.045 | −7.484 | 11.374 | FALSE |  |  |  | 
OIP5_TATTCTACCCATGCTGCCC: library sgRNA targeting OIP5 (as printed in the source, key not given here) | 6.4136 | −5.8943 | 45.034 | FALSE |  |  |  | 
IFNAR1_TCCATCAGATGCTTGTACG: library sgRNA targeting IFNAR1 (listed as DNA, chemistry not fully specified) | 7.1422 | 1.2274 | 4399.3 | TRUE |  |  |  | 
